Results taken from ChEMBL document CHEMBL1177724, “Design, synthesis, and structure-activity relationship studies of novel 2,4,6-trisubstituted-5-pyrimidinecarboxylic acids as peroxisome proliferator-activated receptor gamma (PPARgamma) partial agonists with comparable antidiabetic efficacy to rosiglitazone” (J Med Chem, 2010).
Residue numbers refer to the chain shown, from its start. Converted amounts (≈) assume the structure as drawn. Each block holds one molecule with its values, some of them ahead of it. The source made the active and inactive calls. The rule behind the calls is not given here.

Assays:
[1] = molecular target: T1, Peroxisome proliferator-activated receptor gamma (Homo sapiens, UniProt P37231)
T1 sequence (P37231 whole entry): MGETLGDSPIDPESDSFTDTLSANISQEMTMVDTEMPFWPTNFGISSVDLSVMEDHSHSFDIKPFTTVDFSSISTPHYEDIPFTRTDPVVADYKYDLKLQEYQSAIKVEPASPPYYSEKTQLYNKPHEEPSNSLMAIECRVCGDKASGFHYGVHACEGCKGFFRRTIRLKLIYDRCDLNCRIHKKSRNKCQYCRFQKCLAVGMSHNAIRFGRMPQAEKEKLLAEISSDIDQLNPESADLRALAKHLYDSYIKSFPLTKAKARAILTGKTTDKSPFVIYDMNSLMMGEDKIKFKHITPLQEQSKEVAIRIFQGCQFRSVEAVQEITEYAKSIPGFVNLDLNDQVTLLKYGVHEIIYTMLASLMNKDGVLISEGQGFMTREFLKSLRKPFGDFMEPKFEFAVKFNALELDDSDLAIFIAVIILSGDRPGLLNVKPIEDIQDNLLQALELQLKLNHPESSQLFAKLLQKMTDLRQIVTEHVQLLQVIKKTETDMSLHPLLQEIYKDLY
Description: Partial agonist activity at human PPARgamma-LBD expressed in CHO-K1 cells co-transfected with GAL4 assessed as luciferase activity by transactivation assay

[2] = molecular target: T2, Peroxisome proliferator-activated receptor gamma (Homo sapiens) (UniProt P37231); assay: Partial agonist activity at human PPARgamma-LBD expressed in CHO-K1 cells co-transfected with GAL4 assessed as luciferase activity at 10 uM by transactivation assay; type: functional, cell-based
T2 sequence (whole entry): T1 sequence (P37231 whole entry)

[3] = Solubility in water; type: physicochemical
[4] = molecular target: T2, Peroxisome proliferator-activated receptor gamma (Homo sapiens); assay: Partial agonist activity at human PPARgamma-LBD expressed in CHO-K1 cells co-transfected with GAL4 assessed as luciferase activity at […] by transactivation assay relative to rosiglitazone; type: functional, cell-based
3T3-L1 [5] = assay: Induction of adipogenesis in mouse blast 3T3L1 cells assessed as P2 mRNA expression level after 7 days […]; type: cell-based; conditions: 3t3-l1, 168 h
Mus musculus [6] = assay: Antidiabetic activity in db/db mouse assessed as reduction of plasma glucose level at 100 mg/kg, po qd for 7 days; type: functional; design: scale not given: the % may be the effect or the level left
[7] = Volume of distribution in mouse at 1 mg/kg, iv; type: ADME, organism-based; design: dose 1 mg/kg, route intravenous; conditions: in vivo
[8] = AUC in mouse at 1 mg/kg, iv; type: ADME, organism-based; design: dose 1 mg/kg, route intravenous; conditions: plasma
[9] = molecular target: T1, Peroxisome proliferator-activated receptor gamma; remark: listed apart in the source
Description: Antagonist activity at human PPARgamma-LBD expressed in CHO-K1 cells co-transfected with GAL4 assessed as inhibition of rosiglitazone-induced luciferase activity by transactivation assay

[10] = molecular target: T3, Peroxisome proliferator-activated receptor gamma (Mus musculus, UniProt P37238)
T3 sequence (P37238 whole entry): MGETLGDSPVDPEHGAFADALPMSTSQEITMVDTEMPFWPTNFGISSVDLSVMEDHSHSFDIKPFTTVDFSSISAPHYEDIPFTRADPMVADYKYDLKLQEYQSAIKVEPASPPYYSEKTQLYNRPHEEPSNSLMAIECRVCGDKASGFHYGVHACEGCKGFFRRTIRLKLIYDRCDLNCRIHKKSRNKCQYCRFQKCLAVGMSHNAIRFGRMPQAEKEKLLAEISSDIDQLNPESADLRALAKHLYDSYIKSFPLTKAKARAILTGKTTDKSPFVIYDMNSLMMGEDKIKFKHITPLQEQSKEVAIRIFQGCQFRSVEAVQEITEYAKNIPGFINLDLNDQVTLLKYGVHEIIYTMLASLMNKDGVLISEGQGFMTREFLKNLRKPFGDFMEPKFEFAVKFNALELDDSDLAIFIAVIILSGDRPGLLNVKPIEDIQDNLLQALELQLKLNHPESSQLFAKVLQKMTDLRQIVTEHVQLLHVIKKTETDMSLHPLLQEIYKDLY
Description: Partial agonist activity at mouse PPARgamma-LBD expressed in CHO-K1 cells co-transfected with GAL4 assessed as luciferase activity by transactivation assay

[11] = molecular target: T4, Peroxisome proliferator-activated receptor gamma (Rattus norvegicus, UniProt O88275)
T4 sequence (O88275 whole entry): T3 sequence (P37238 whole entry) with S8P, E54D, N383S
Description: Antagonist activity at rat PPARgamma-LBD expressed in CHO-K1 cells co-transfected with GAL4 assessed as inhibition of rosiglitazone-induced luciferase activity by transactivation assay

[12] = AUC in mouse at 1 mg/kg, po; type: ADME, organism-based; design: dose 1 mg/kg, route oral; conditions: plasma
Mus musculus [13] = assay: Antidiabetic activity in db/db mouse assessed as reduction of plasma glucose level at 30 mg/kg, po qd for 7 days; type: functional; design: scale not given: the % may be the effect or the level left
3T3-L1 [14] = assay: Induction of adipogenesis in mouse 3T3L1 cells assessed as increase in lipid accumulation by Oil red O staining
[15] = Clearance in mouse at 1 mg/kg, iv; type: ADME, organism-based; design: dose 1 mg/kg, route intravenous; conditions: in vivo
[16] = molecular target: T4, Peroxisome proliferator-activated receptor gamma; remark: listed apart in the source
Description: Partial agonist activity at rat PPARgamma-LBD expressed in CHO-K1 cells co-transfected with GAL4 assessed as luciferase activity by transactivation assay

[17] = Oral bioavailability in mouse at 1 mg/kg; type: ADME, organism-based; conditions: in vivo
Mus musculus [18] = assay: Antidiabetic activity in db/db mouse assessed as reduction of plasma glucose level at 10 mg/kg, po qd for 7 days; type: functional; design: scale not given: the % may be the effect or the level left
Mus musculus [19] = assay: Antidiabetic activity in db/db mouse assessed as weight gain at 10 to 100 mg/kg, po qd for 7 days; type: functional, organism-based
[20] = Plasma concentration in mouse at 1 mg/kg, iv after 10 mins; type: ADME, organism-based; design: dose 1 mg/kg, route intravenous
[21] = Half life in mouse at 1 mg/kg, iv; type: ADME, organism-based; design: dose 1 mg/kg, route intravenous; conditions: in vivo
[22] = molecular target: T3, Peroxisome proliferator-activated receptor gamma; remark: listed apart in the source
Description: Antagonist activity at mouse PPARgamma-LBD expressed in CHO-K1 cells co-transfected with GAL4 assessed as inhibition of rosiglitazone-induced luciferase activity by transactivation assay

Mus musculus [23] = assay: Antidiabetic activity in db/db mouse assessed as weight gain at 3 to 10 mg/kg, po qd for 7 days; type: functional, organism-based
3T3-L1 [24] = assay: Induction of adipogenesis in mouse mature 3T3L1 cells assessed as P2 mRNA expression level after 10 days […]; type: cell-based; conditions: 3t3-l1, 240 h

EC50 [1]: 5000 nM
SMILES: CSc1nc(Cl)c(C(=O)NCc2ccccc2)c(NCc2ccccc2)n1

EC50 [1]: 950 nM
SMILES: CCCCCCCCSc1nc(NCc2ccccc2)c(C(=O)O)c(SCc2ccccc2)n1

EC50 [1]: > 10000 nM
SMILES: O=C(O)c1c(NCc2ccccc2)ncnc1SCc1ccccc1

EC50 [1]: 420 nM
SMILES: CCCCN(C)c1nc(NCc2ccccc2)c(C(=O)O)c(SCc2ccccc2)n1

Activity [2]: inactive
SMILES: CSc1nc(C)c(C(=O)NCc2ccccc2)c(NCc2ccccc2)n1

EC50 [1]: 1600 nM
SMILES: CSc1nc(Nc2ccccc2)c(C(=O)O)c(SCc2ccccc2)n1

EC50 [1]: 250 nM
SMILES: CCCCCCCNc1nc(NCc2ccccc2)c(C(=O)O)c(SCc2ccccc2)n1

EC50 [1]: > 10000 nM
SMILES: CCCCN(CCCC)c1nc(NCc2ccccc2)c(C(=O)O)c(SCc2ccccc2)n1

EC50 [1]: 2700 nM
SMILES: CSc1nc(NCc2ccncc2)c(C(=O)O)c(SCc2ccccc2)n1

EC50 [1]: 470 nM
SMILES: CCCCNc1nc(NCc2ccccc2)c(C(=O)O)c(SCc2ccccc2)n1

EC50 [1]: 550 nM
SMILES: CCCCSc1nc(NCc2ccccc2)c(C(=O)O)c(SCc2ccccc2)n1

EC50 [1]: 2300 nM
SMILES: CSc1nc(NCc2ccccc2)c(C(=O)O)c(OCc2ccccc2)n1

The remaining lines, values behind:

SMILES: CSc1nc(NCC2CCCCC2)c(C(=O)O)c(SCc2ccccc2)n1
EC50 [1]: 300 nM

SMILES: CSc1nc(NCc2ccccc2)c(C(=O)O)c(SCc2ccccc2)n1
EC50 [1]: 180 nM
solubility [3]: < 1 µg/mL

SMILES: CSc1nc(NCc2ccccc2)c(C(=O)O)c(-c2cccs2)n1
EC50 [1]: > 10000 nM
Activity [4]: inactive

SMILES: CSc1nc(NCCc2ccccc2)c(C(=O)O)c(SCc2ccccc2)n1
EC50 [1]: 670 nM

SMILES: CSc1nc(NC2CC2)c(C(=O)O)c(SCc2ccccc2)n1
EC50 [1]: 1800 nM

SMILES: CSc1nc(NCc2ccccn2)c(C(=O)O)c(SCc2ccccc2)n1
EC50 [1]: 250 nM

SMILES: CNc1nc(SC)nc(SCc2ccccc2)c1C(=O)O
EC50 [1]: > 10000 nM

SMILES: CSc1nc(SCc2ccccc2)c(C(=O)O)c(SCc2ccccc2)n1
Activity (3T3-L1 [5]): Not Active
Activity (Mus musculus [6]): 77%
EC50 [1]: 140 nM
Vd [7]: 0.12 L/kg
AUC [8]: 8860 ng·h/mL
IC50 [9]: 1790 nM
EC50 [10]: 158 nM
IC50 [11]: 539 nM
AUC [12]: 3170 ng·h/mL
Activity (Mus musculus [13]): 56%
solubility [3]: 43.7 µg/mL (≈ 105 µM)
Activity (3T3-L1 [14]): Active
clearance [15]: 1.88 mL/min/kg
EC50 [16]: 158 nM
bioavailability [17]: 35.8%
Activity (Mus musculus [18]): 27%
Activity (Mus musculus [19]): inactive
concentration at 10 min [20]: 6890 ng/mL
half-life [21]: 45.6 min
IC50 [22]: 1770 nM

SMILES: CSc1nc(NCc2cccnc2)c(C(=O)O)c(SCc2ccccc2)n1
EC50 [1]: 740 nM

SMILES: CCCNc1nc(SC)nc(SCc2ccccc2)c1C(=O)O
EC50 [1]: > 10000 nM

SMILES: CN(CCOc1ccc(CC2SC(=O)NC2=O)cc1)c1ccccn1 (stereo not drawn) [ROSIGLITAZONE]
Activity (3T3-L1 [5]): Dose-dependent effect
Activity (Mus musculus [23]): inactive
Activity (3T3-L1 [24]): Dose-dependent effect
Activity (3T3-L1 [14]): Active
Activity (Mus musculus [18]): 67%
